BindingDB's records for doi:10.1021/jm981033g (University of Antwerp (Uia), 1999)

How the values were obtained:
[1] = Effect on the activity of prolyl endopeptidase (PEP) was evaluated at the IC50 concentration for DPP IV and
[2] = Effect on the activity of prolyl endopeptidase (PEP) was evaluated at 1 mM concentration for DPP IV

Question: For `CC(=O)Nc1cccc(OP(=O)(Oc2cccc(NC(C)=O)c2)C2CCCN2C(=O)C2CCCN2)c1` (configuration not stated) [2-{2-[Bis-(3-acetylamino-phenoxy)-phosphoryl]-pyrrolidine-1-carbonyl}-pyrrolidinium; chloride], which IC50 [1] is on record?
Answer: Its IC50 is 89 µM.

Question: What about the IC50 [2] of the same compound?
Answer: The IC50 was 50 µM.
